Measured values reported in patent US8222278B2, “Treatment of attention-deficit/hyperactivity disorder” (Abbott Laboratories, priority 2008, dated 2012).

Tests used:
[1] = system: adults with ADHD; experiment: Study A: treatment-emergent adverse events (safety dataset); details: Atomoxetine 40 mg BID, N = 50
Procedure: During each visit, blood pressure, heart rate, weight, medication accountability and tolerability, and adverse effects were assessed.
The safety dataset consisted of all subjects who took at least one dose of study drug. The reasons for discontinuation and the treatment-emergent adverse events were summarized by the treatment under which the discontinuation or event was reported.
Treatment-emergent adverse events were those that began or worsened following the first dose of study drug in Period 1. Adverse event monitoring was conducted at each study visit and until 30 days following discontinuation of study drug. Other routine safety assessments included vital signs, electrocardiograms, physical examinations, brief neurological examinations and laboratory tests.

[2] = system: adults with ADHD; experiment: Study A: weight and vital signs; assay type: in vivo, human; details: Atomoxetine 40 mg BID, final evaluation (LOCF)
Procedure: The treatment group differences in vital signs were analyzed using a Grizzle Model similar to the model used for the efficacy analyses with the exclusion of period-specific baselines.

[3] = system: adults with ADHD; experiment: Study A: ABT-894 Adult ADHD Dose-Ranging crossover clinical study, efficacy rating scales; assay type: in vivo, human; details: Atomoxetine 40 mg BID
Procedure: (§1) A clinical study (Study A) was conducted to assess the safety and efficacy of ABT-894 compared to placebo in adults with ADHD and to evaluate the dose-response relationship.
A total of 243 subjects aged 18 to 60 years old meeting DSM-IV-TR criteria for ADHD were randomized across the 5 dose groups. Male or female patients were included. […] The disposition of the study subjects is further discussed with the study results below.
(§2) Subjects in each dose group received, in random order, both ABT-894 and placebo according to a 2×2 crossover design. Each treatment period was 4 weeks separated by a 2-week washout period.
Each site was assigned to one of two cohorts (Cohort A or Cohort B) in approximately a 3:2 ratio. Subjects in Cohort A were randomized in equal proportions to one of 6 treatment sequences in 3 dose groups, and subjects in Cohort B were randomized in equal proportions to one of 4 treatment sequences in 2 dose groups, as shown in Table 1. Within each dose group subjects received either ABT-894 or atomoxetine in Period 1 and placebo in Period 2, or placebo in Period 1 and ABT-894 or atomoxetine in Period 2.
The study medication was dispensed in the form of a capsule. Each capsule contained ABT-894, atomoxetine, or placebo. The capsules were made to look identical.
The primary efficacy endpoint was the Conners' Adult ADHD Rating Scale—Investigator Rated (CAARS:Inv) Total Score (18 items) at the final evaluation of each 4-week treatment period. The CAARS:Inv was assessed at baseline and Days 7. 14. 21, and 28 of each period. Each CAARS:Inv item was rated on a 4-point scale of frequency of occurrence (0=not at all, never; 3=very much. very frequently) during the previous 7 days.
(§3) Secondary efficacy endpoints included the CAARS:Inv Inattentive and Hyperactive/Impulsive Subscale Scores, Clinical Global Impression-ADHD-Severity Scale (CGI-ADHD-S). Adult ADHD Investigator Symptom Report Scale (AISRS), including total and subscales, and the Self-rated Connors Adult ADHD Rating Scale (CAARS-Self). Health outcomes including the Adult ADHD Quality of Life Scale (AAQoL) and Work Productivity and Activity Impairment Questionnaire (WPAI) were used to evaluate the validity of these scales in this study population for use in subsequent clinical trials.
The primary analysis was performed on each dose group separately according to the Statistical Analysis Plan (SAP). The primary statistical model that was used for analyzing the primary efficacy variable, the CAARS:INV total score, and all other secondary efficacy variables was determined by a SAP specified testing procedure. The comparability between two sequences for a given dose group with respect to the difference between period-specific baselines was tested using a one-way ANCOVA with the term of treatment and the Period I baseline as the covariate at the significance level of 0.10. The equal residual effect from Period I to Period II between two different sequences for a given dose group was tested using a standard model for cross-over data analysis, Grizzle model, on the term of “sequence” at the significance level of 0.10.
After the study blind was broken, across 5 dose groups. all the tests accepted the null hypothesis that there was no statistically significant treatment effect for the differences between the period-specific baselines. The tests also accepted the null hypothesis that there was no period residual effect in any of the dose groups. Accordingly, the Grizzle model was used as the primary analysis model to analyze treatment group difference for CAARS:INV total score at Day 28 for each dose group. The Grizzle Model was carried out by SAS PROC Mixed with the terms of study center. sequence, subjects within sequence, period, treatment, as well as period-specific baselines as covariates.
The primary efficacy dataset included all subjects who completed both periods of the study (completers dataset). […]

[4] = system: adults with ADHD; experiment: Study A: patient-reported health outcomes (AAQoL, WPAI); assay type: in vivo, human; set-up: WPAI Absenteeism (employed), Mean Diff. / WPAI Impaired Work Effectiveness (employed), Mean Diff. / AAQoL Total, Mean Diff. / WPAI Overall Activity Impairment (all), Mean Diff. / WPAI Overall Work Impairment (employed), Mean Diff.: scale not given here; details: ATX 40 mg BID
Procedure: as §1, §2, §3

## CNCC[C@@H](Oc1ccccc1C)c1ccccc1 [Atomoxetine, (3R)-N-methyl-3-(2-methylphenoxy)-3-phenyl-propan-1-amine, reference compound]
[1]
  Any Adverse Event, % of subjects: (82.0) %
  Any Adverse Event, number of subjects: 41 subjects
  Decreased appetite, % of subjects: (12.0) %
  Decreased appetite, number of subjects: 6 subjects
  Diarrhea, % of subjects: (2.0) %
  Diarrhea, number of subjects: 1 subjects
  Dizziness, % of subjects: (8.0) %
  Dizziness, number of subjects: 4 subjects
  Dry mouth, % of subjects: (6.0) %
  Dry mouth, number of subjects: 3 subjects
  Fatigue, % of subjects: (12.0) %
  Fatigue, number of subjects: 6 subjects
  Feeling hot and cold, % of subjects: (6.0) %
  Feeling hot and cold, number of subjects: 3 subjects
  Feeling jittery, % of subjects: (6.0) %
  Feeling jittery, number of subjects: 3 subjects
  Headache, % of subjects: (14.0) %
  Headache, number of subjects: 7 subjects
  Influenza-like illness, % of subjects: (6.0) %
  Influenza-like illness, number of subjects: 3 subjects
  Lethargy, % of subjects: (6.0) %
  Lethargy, number of subjects: 3 subjects
  Muscle Strain, % of subjects: (0) %
  Muscle Strain, number of subjects: 0 subjects
  Nasal congestion, % of subjects: (4.0) %
  Nasal congestion, number of subjects: 2 subjects
  Nausea, % of subjects: (20.0) %
  Nausea, number of subjects: 10 subjects
  Parathesia, % of subjects: (10.0) %
  Parathesia, number of subjects: 5 subjects
  Sleep disturbances, % of subjects: (16.0) %
  Sleep disturbances, number of subjects: 8 subjects
  Somnolence, % of subjects: (8.0) %
  Somnolence, number of subjects: 4 subjects
  Upper RTI, % of subjects: (4.0) %
  Upper RTI, number of subjects: 2 subjects
  Vomiting, % of subjects: (2.0) %
  Vomiting, number of subjects: 1 subjects
[2]
  Diastolic BP, mean difference from placebo: 0.72 mm Hg
  Pulse, mean difference from placebo: 4.74 bpm
  Systolic BP, mean difference from placebo: 1.16 mm Hg
  Weight, mean difference from placebo: -0.73 kg
[3]; day 28, completers
  AISRS Hyperactivity Score, mean difference from placebo: −3.29 (−5.4, −1.2)
  AISRS Inattention Score, mean difference from placebo: −3.81 (−6.1, −1.6)
  AISRS Total Score, mean difference from placebo: −7.18 (−11.5, −2.9)
  CAARS:Self ADHD Index, mean difference from placebo: −3.08 (−4.8, −1.3)
  CAARS:Self Hyperactivity Score, mean difference from placebo: −1.43 (−2.4, −0.5)
  CAARS:Self Impulsivity Score, mean difference from placebo: −1.17 (−1.9, −0.5)
  CAARS:Self Inattention/Memory Score, mean difference from placebo: −1.56 (−2.5, −0.6)
  CAARS:Self Problem with Self-concept Score, mean difference from placebo: −0.70 (−1.5, 0.1)
  CAARS:Self Total Score, mean difference from placebo: −7.12 (−10.9, −3.3)
  CGI-ADHD-S, mean difference from placebo: −0.45 (−0.8, −0.1)
[3]; day 28, completers N = 40
  CAARS:Inv ADHD Index, mean difference from placebo: −3.00 (−4.9, −1.1)
  CAARS:Inv Hyperactive/Impulsive subscale score, mean difference from placebo: −1.43 (−2.4, −0.4)
  CAARS:Inv Inattentive subscale score, mean difference from placebo: −3.89 (−6.3. −1.5)
  CAARS:Inv Total Score, mean difference from placebo: −7.98 (−12.5. −3.5)
[4]; N 18
  WPAI Absenteeism (employed), Mean Diff.: 0.019
  WPAI Impaired Work Effectiveness (employed), Mean Diff.: −0.143
  WPAI Overall Work Impairment (employed), Mean Diff.: −0.12
[4]; N 36
  WPAI Overall Activity Impairment (all), Mean Diff.: −0.13
[4]; N 40
  AAQoL Total, Mean Diff.: 7.23
